The assay has as its target T1, Brucella suis urease (ure-1 operon) (Brucella suis, UniProt Q8G2P8).
T1 construct: gene ureC1
In words: biochemical.
T1 sequence (Q8G2P8 whole entry, looked up): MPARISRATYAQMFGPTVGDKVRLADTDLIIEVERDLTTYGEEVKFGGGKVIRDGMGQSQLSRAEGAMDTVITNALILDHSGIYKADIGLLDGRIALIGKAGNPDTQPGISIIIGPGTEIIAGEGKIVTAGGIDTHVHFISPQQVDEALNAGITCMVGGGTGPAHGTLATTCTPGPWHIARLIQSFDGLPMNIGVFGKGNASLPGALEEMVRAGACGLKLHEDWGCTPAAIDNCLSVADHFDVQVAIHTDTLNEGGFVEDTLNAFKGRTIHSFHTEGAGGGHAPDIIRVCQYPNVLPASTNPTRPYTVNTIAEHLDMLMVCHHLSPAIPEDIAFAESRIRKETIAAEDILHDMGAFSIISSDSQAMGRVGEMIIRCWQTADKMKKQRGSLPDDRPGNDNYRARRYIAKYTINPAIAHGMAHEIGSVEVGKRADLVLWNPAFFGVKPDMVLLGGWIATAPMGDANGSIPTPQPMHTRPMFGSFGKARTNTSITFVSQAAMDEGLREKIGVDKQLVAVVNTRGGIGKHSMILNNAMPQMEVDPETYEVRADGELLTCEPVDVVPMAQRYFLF
As to `CC(=O)NO` [acetohydroxamic acid], the Ki (as a rule, a measure of affinity in units of concentration, obtained from inhibition or displacement) amounted to 770 ± 60 µM.
To `NC(N)=S` [thiourea] belongs 26100 ± 2300 µM.
`NC(=O)NO` [hydroxyurea] displayed a Ki of 1040 ± 310 µM.

The record behind these values is publication PMC2492869 (BMC Microbiology, 2008).
